Values of other authors in patent US20040127476A1, “Oral testosterone delivery system with improved sustained release” (priority 2002, published 2004).

Columns and labels:
[1] = oral 200 mg twice daily, double peak effect
[2] = oral 200 mg twice daily (two doses)

Structure (SMILES): C[C@]12CC[C@H]3[C@@H](CCC4=CC(=O)CC[C@@]43C)[C@@H]1CC[C@@H]2O [micronized testosterone, testosterone]
- time at desired level of serum testosterone, for each peak [1]: about 4 hours
- time with total serum testosterone within the normal range [2]: greater than 12 h
